What all share (assay type): cell-based, Staphylococcus aureus
Assay [1] relates to S. aureus ATCC 25923. In words: Minimum Inhibitory Concentration (MIC) on planktonic bacteria, CLSI M07-A9 modified for 96 well plates.
Assay [2] concerns S. aureus ATCC 25923. Description: Biofilm prevention (inhibition), 96-well microplate assay.
Assay [3] has as its system S. aureus ATCC 25923. In words: Biofilm removal, MBEC Assay (ASTM E2799-12).

Values joined by “and” are separate entries in the source; they are usually repeats but may differ in a detail not shown here. Identical values can stand only once.

On to `CCCCOP(=O)(OC)OCCCC` [Dibutyl methyl phosphate], for which, in the assay with S. aureus ATCC 25923 [1], the MIC is on record as 0.24%. Further, the “Biofilm Prevention” value with S. aureus ATCC 25923 [2] was found to be 99.99%. Besides, in the assay with S. aureus ATCC 25923 [3], the “Biofilm Removal” value is given as 99.99% and the “MBEC Qualitative” value is listed as >2.3%.
As to `CCCCOP(=O)(O)OCCCC` [Dibutyl phosphate], the MIC against S. aureus ATCC 25923 [1] was 0.24% and 0.01%. Besides, the “Biofilm Prevention” value in the assay with S. aureus ATCC 25923 [2] amounted to 99.99%. In the assay with S. aureus ATCC 25923 [3], the “Biofilm Removal” value worked out at 99.99% and the “MBEC Qualitative” value came to 0.24%.

For the origin of these results see patent US20230248000A1, “ANTIMICROBIAL COMPOUNDS AND METHODS OF USE” (Aequor, Inc., priority 2016, published 2023).
